From PMC4535766, “Antiprotozoal Activity Profiling of Approved Drugs: A Starting Point toward Drug Repositioning” (PLoS ONE, 2015)
Read-outs that look alike come from different tables or passages of the source.

How the values were obtained:
[1] = Cytotoxicity on macrophages infected with L. donovani; type: cell-based, mouse; conditions: mouse
[2] = test system: T. b. rhodesiense strain STIB 900, trypomastigotes; assay: In vitro activity against T. b. rhodesiense, serial drug dilution assay; conditions: for IC50: Trypanosoma brucei; for Activity against T. b. rhodesiense (in words): in vitro; for selectivity ratio: rat
Method: (§1) Drug stock solutions (10mg/ml) were in DMSO (100%). […] Selectivity index (SI) was calculated as IC50 L6 cells/IC50 parasite.

[3] = test system: P. falciparum strain K1; assay: In vitro activity against P. falciparum, serial drug dilution assay; conditions: for IC50: Plasmodium falciparum; for selectivity ratio: rat
Method: as §1

[4] = test system: axenic amastigotes of L. donovani, strain MHOM-ET-67/L82; assay: In vitro activity against L. donovani axenic amastigotes, serial drug dilution assay; type: cell-based, Leishmania donovani
Method: as §1

[5] = test system: L. donovani strain MHOM-ET-67/L82 amastigotes; assay: Activity against Leishmania donovani intracellular amastigotes in mouse peritoneal macrophages; conditions: mouse
Method in brief: (§2)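 Axenic amastigotes grown at pH 5.4 infected mouse peritoneal macrophages for 4 h before free parasites were washed off. Next day, seven 3-fold drug dilutions (30–0.04 μg/ml) were added for 96 h. Giemsa-stained infected macrophages were counted, burden reduction was taken vs untreated controls, and IC50 came from linear regression.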

[6] = test system: intracellular amastigotes of L. donovani strain MHOM-ET-67/L82; assay: as above; conditions: for IC50: Leishmania donovani, Peritoneal macrophage, in Mus musculus
Method in brief: as §2

[7] = in vitro; conditions: rat
Method: as §1

[8] = test system: T. cruzi, strain Tulahuen C4, intracellular amastigotes; assay: microbe, parasite or virus in culture; conditions: for IC50: Trypanosoma cruzi, TULAHUEN; for selectivity ratio: rat, Selectivity index: IC50 Cytotoxicity L6/ IC50 T. cruzi
Method: as §1

[9] = test system: macrophages infected with L. donovani; assay: Cytotoxicity on macrophages infected with L. donovani; type: cell-based, mouse; conditions: for IC50: macrophages infected with L. donovani, read-out: IC50 Cytotox. mac.inf.
[10] = In vitro cytotoxicity with mouse peritoneal macrophages (Alamar Blue); type: cell-based
Method: After 96 h of incubation, the plates were inspected under an inverted microscope to assure sterility. […] The IC50 values were calculated by linear regression from the sigmoidal dose inhibition curves using SoftmaxPro software (Molecular Devices Cooperation, Sunnyvale, CA, USA).

[11] = test system: L6 cells; assay: Cytotoxicity on L6 cells; conditions: read-out: IC50 Cytotox. L6; L6 cells; means of two independent assays
Method: as §1

[12] = macrophages infected with L. donovani, read-out: IC50 Cytotox. mac.inf.
[13] = infected macrophages, read-out: Cytotox. mac.inf. IC50
[14] = Leishmania donovani, axenic amastigotes, strain MHOM-ET-67/L82, means of two independent assays, read-out: IC50 L. don. axen.
[15] = 96 h, read-out: IC50 L. don. intracell
[16] = Selectivity index: IC50 Cytotoxicity macrophages/ IC50 L. donovani

| Compound | IC50 at 96 h [1, 12] [µM] | IC50 [4, 14] [µM] | IC50 [6, 15] [µM] | IC50 ([2]; read-out: IC50 T. b. rhod.) [µM] | selectivity ratio at 96 h [5, 16] | IC50 ([7]; IC50 Cytotox. L6) [µM] | IC50 ([8]; read-out: IC50 T. cruzi) [µM] | IC50 at 96 h ([10]; mouse) [µM] | IC50 ([3]; K1, read-out: IC50 P. falc. K1) [nM] | also measured |
| --- | --- | --- | --- | --- | --- | --- | --- | --- | --- | --- |
| Cc1c(C)c2c(c(C)c1O)CCC(C)(COc1ccc(CC3SC(=O)NC3=O)cc1)O2 (stereo not shown) [Troglitazone] | > 68 | 4.26 | > 67.9 | – | – | – | – | – | – | IC50 at 96 h [1, 13]: > 67.9 µM; IC50 ([2]; read-out: T. b. rhod. IC50): 59.3 µM; IC50 ([3]; K1, read-out: P. falc. IC50): 7270 nM; selectivity ratio at 96 h ([5]; mouse peritoneal macrophages versus L. donovani amastigotes, Selectivity index: IC50 Cytotoxicity macrophages/ IC50 L. donovani, axenic or intracellular IC50 not specified): > 16; IC50 ([7]; Cytotox. L6 IC50): 80.6 µM; IC50 ([8]; read-out: T. cruzi IC50): 32.6 µM |
| CC1CS(=O)(=O)CCN1/N=C/c1ccc([N+](=O)[O-])o1 (stereo not shown) [Nifurtimox] | 34.8 | 2.76 | 20.7 | 1.44 | 13 | 87 | 0.19 | 15.7 | – | IC50 [9]: > 34.8 µM; Activity against T. b. rhodesiense (in words) [2]: active; selectivity ratio ([2]; Selectivity index: IC50 Cytotoxicity L6/ IC50 T. b. rhodesiense): 60; selectivity ratio [8]: 458 |
| OC(Cn1cncn1)(Cn1cncn1)c1ccc(F)cc1F [Fluconazole] | > 98 | 211 | > 98 | 273 | – | – | 9.96 | – | – | IC50 ([7]; L6 cells, IC50 Cytotox. L6, L6 cells, means of two independent assays): > 294 µM; selectivity ratio [8]: > 30; IC50 [11]: > 294 µM |
| O=C(O)c1nn(Cc2ccc(Cl)cc2Cl)c2ccccc12 [Lonidamine] | > 93.4 | 8.66 | > 93.4 | 135 | > 11 | 273 | 177 | – | > 15600 | IC50 [9]: > 93.4 µM |
| C[C@@H]1[C@H](O)[C@@H](C)/C=C/C=C/C=C/C=C/C=C/C=C/C=C/[C@H](O[C@@H]2O[C@H](C)[C@@H](O)[C@H](N)[C@@H]2O)C[C@@H]2O[C@](O)(C[C@@H](O)C[C@@H](O)[C@H](O)CC[C@@H](O)C[C@@H](O)CC(=O)O[C@H]1C)C[C@H](O)[C@H]2C(=O)O [Amphotericin B] | 32.4 | 0.34 | 0.31 | 0.76 | – | – | 56.7 | 22.4 | 800 | selectivity ratio [2]: 14; selectivity ratio [3]: 13; selectivity ratio at 96 h [5]: 95; IC50 [7]: 10.3 µM |
| N=C(N)c1ccc(OCCCCCOc2ccc(C(=N)N)cc2)cc1 [Pentamidine] | > 29.4 | 19.8 | 2.63 | 0.01 | – | 8.87 | 4.44 | 7.78 | – | Activity against T. b. rhodesiense (in words) [2]: active; selectivity ratio [2]: 887 |
| Clc1ccccc1C(c1ccccc1)(c1ccccc1)n1ccnc1 [Clotrimazole] | – | – | – | – | – | 2.99 | – | 32.5 | – | Activity against P. falciparum (in words) ([3]; in vitro): active; Activity against L. donovani intracellular amastigotes (in words) [6]: active with low selectivity |
| O=C(Nc1ccc([N+](=O)[O-])cc1Cl)c1cc(Cl)ccc1O [Niclosamide] | – | 0.15 | > 0.31 | 1.67 | – | 2.3 | 2.49 | – | 1140 | MCC at 96 h [1, 12]: 1010 nM; Concentrations toxic to mouse macrophages ([9]; mouse, 96 h): > 0.3 µg/mL; Activity against intracellular amastigotes at a fixed concentration ([6]; at a concentration of 0.1 μg/ml): inactive |
| C[C@H]1[C@H](OC(=O)CCC(=O)O)O[C@@H]2O[C@@]3(C)CC[C@H]4[C@H](C)CC[C@@H]1[C@@]24OO3 [Artesunate] | > 7.8 | – | > 7.8 | 16.8 | > 22 | 0.78 | 8.97 | – | 3 | selectivity ratio ([3]; Selectivity index: IC50 Cytotoxicity L6/ IC50 P. falciparum): 260; IC50 ([4]; axenic amastigotes, strain MHOM-ET-67/L82, means of two independent assays, listed as artesunate, read-out: IC50 L. don. axen.): < 3 µM; IC50 ([4]; axenic amastigotes, strain MHOM-ET-67/L82, means of two independent assays, read-out: IC50 L. don. axen.): 0.35 µM |
| COc1cc(NC(C)CCCN)c2ncccc2c1 (stereo not shown) [Primaquine] | – | – | – | – | – | – | – | – | – | IC50 at 96 h [1, 13]: > 38.6 µM; IC50 ([2]; read-out: T. b. rhod. IC50): 4.78 µM; IC50 ([4]; Leishmania donovani, L. donovani axenic amastigotes, read-out: L. don. axen. IC50): 48.6 µM; IC50 ([6]; read-out: L. don. intracell IC50): 28.2 µM; IC50 [7]: 43.2 µM; IC50 ([8]; read-out: T. cruzi IC50): 17.9 µM; IC50 at 96 h ([10]; peritoneal mouse macrophages, read-out: Cytotox. PMM IC50): 39.7 µM |
